Format in all cases: functional
Experiment [1] deals with Mycobacterium tuberculosis. The experiment in a line: Antitubercular activity against Mycobacterium tuberculosis.
Experiment [2] has as its system Mycobacterium tuberculosis. The experiment in a line: Antitubercular activity against Mycobacterium tuberculosis H37Rv assessed as inhibition of bacterial growth by BACTEC radiometric assay.
Experiment [3] concerns Mycobacterium tuberculosis. As to the kind of experiment: Antitubercular activity against Mycobacterium tuberculosis H37Rv assessed as minimum inhibitory concentration incubated for 5 days by resazurin staining based fluorescent plate reader analysis. As to conditions: 120 h, time 5 day.
In experiment [4] the test system is Mycobacterium tuberculosis. The experiment in a line: Antitubercular activity against Mycobacterium tuberculosis H37Rv assessed as inhibition of bacterial growth by colorimetric microdilution broth assay.
Experiment [5] has as its system Mycobacterium tuberculosis. As to the kind of experiment: Antitubercular activity against Mycobacterium tuberculosis H37Rv assessed as bacterial growth incubated for 5 days by resazurin staining based fluorescent plate reader analysis relative to control. Conditions: time 5 day. In general terms: Resazurin is reduced to fluorescent resorufin, in cell work by metabolically active cells.

Values after ≈ are worked out from the molar mass of the structure shown. A value given as a limit tells only on which side of the number the result lay.

As a reminder, the MIC is the smallest concentration in the dilution series that meets the test's criterion for growth inhibition. Compound `CCCCCCS(=O)(=O)CC(N)=O` returned an MIC in experiment [1] of 241 µM (≈ 50 µg/mL).
Consider `NC(=O)CS(=O)(=O)CCCCc1ccccc1`, for which the MIC is over 25 µg/mL in experiment [2] and over 100 µM in experiment [1].
`CCCCCCCCS(=O)(=O)CC(N)=O` returned an MIC in experiment [1] of 27 µM (≈ 6.35 µg/mL).
Take `CCCCCCCCS(=O)(=O)CC(=O)O`: in experiment [2], the MIC is over 25 µg/mL.
Take `CCCCCCCCCCCCCCCCCCS(=O)(=O)CC(N)=O`: the MIC in experiment [1] is over 133 µM.
In general, MIC90 refers to the lowest concentration that inhibits either 90% of growth or 90% of the strains tested, depending on the study. `CCCCCCCCCCS(=O)(=O)CC(N)=O`: the MIC90 in experiment [3] was 1.32 µg/mL (≈ 5.01 µM). Besides, it took 2.9 µM (≈ 0.764 µg/mL) to inhibit growth in experiment [1] (MIC).
Compound `CCCCCCCS(=O)(=O)CC(N)=O` returned an MIC in experiment [1] of over 113 µM.
In experiment [1], `CCCCCCCCCCCCS(=O)(=O)CC(N)=O` registered an MIC of 43 µM (≈ 12.5 µg/mL).
For the compound `CCCCCCCCCCCC(=O)NS(=O)(=O)OC[C@H]1O[C@@H](n2cnc3c(N)ncnc32)[C@H](O)[C@@H]1O`, in experiment [1], the MIC was 0.2 µM (≈ 0.106 µg/mL).
As for `NC[C@H]1O[C@@H](n2cnc3c(N)ncnc32)[C@H](O)[C@@H]1O`, the MIC in experiment [4] is over 100 µg/mL.
As for `NC(=O)CS(=O)(=O)CCCCCc1ccccc1`, the MIC in experiment [2] was 12.5 µg/mL (≈ 46.4 µM); in experiment [1] it was 46 µM (≈ 12.4 µg/mL).
`CCCCCCCCCS(=O)(=O)CC(N)=O`: the MIC in experiment [1] turned out to be 12 µM (≈ 2.99 µg/mL).
`CCCCCCCCCCCCOP(=O)(O)OC[C@H]1O[C@@H](n2cnc3c(N)ncnc32)[C@H](O)[C@@H]1O`: in experiment [1], 1.9 µM (≈ 0.98 µg/mL) was the least that counted as inhibitory (MIC).
On the same count and under the same terms, the figure for `Nc1ncnc2c1ncn2[C@@H]1O[C@H](COS(=O)(=O)NC(=O)CCCCCCCCCCOc2ccccc2)[C@@H](O)[C@H]1O` is 3.1 µM (≈ 1.88 µg/mL); for `CCCCCCCCCOCC(=O)NS(=O)(=O)OC[C@H]1O[C@@H](n2cnc3c(N)ncnc32)[C@H](O)[C@@H]1O` it is 0.1 µM (≈ 0.0531 µg/mL); for `[N-]=[N+]=NCCCCCCCCCCCC(=O)NS(=O)(=O)OC[C@H]1O[C@@H](n2cnc3c(N)ncnc32)[C@H](O)[C@@H]1O` it is 0.2 µM (≈ 0.114 µg/mL).
As to `NC(=O)CS(=O)(=O)CCCCCCC1C=CC=CC1` (stereo not drawn), the MIC in experiment [2] was 12.5 µg/mL (≈ 43.8 µM); in experiment [1], 44 µM (≈ 12.6 µg/mL).
For the compound `CCCCCCCCCCS(=O)(=O)CC(=O)NC[C@H]1O[C@@H](n2cnc3c(N)ncnc32)[C@H](O)[C@@H]1O`, the Activity in experiment [5] came out at 100%.
Consider `CCCCCCCCCCS(=O)(=O)Cc1cn(C[C@H]2O[C@H](OCc3ccccc3)[C@@H](O)[C@@H](O)[C@@H]2O)nn1`, for which, in experiment [3], the MIC90 is over 50 µg/mL.
As for `CCCCCCCCCCS(=O)(=O)Cc1cn(CCCCn2c(=O)oc3ccccc32)nn1`, the MIC90 in experiment [3] is over 50 µg/mL.
In the case of `CCCCCCCCCCS(=O)(=O)Cc1nc2ccccc2oc1=O`, in experiment [3], the MIC90 amounted to 5.85 µg/mL (≈ 16 µM).
On to `CCCCCCCCCCCS(=O)(=O)CC(N)=O`, for which the MIC90 in experiment [3] is 1.39 µg/mL (≈ 5.01 µM).
Turning to `CCCCCCCCCCS(=O)(=O)CC(=O)NC[C@H]1O[C@H](OCc2ccccc2)[C@@H](O)[C@@H](O)[C@@H]1O`, the MIC90 in experiment [3] is over 50 µg/mL.
With `NC(=O)CS(=O)(=O)CCCCCCCCCCc1ccccc1`, in experiment [3], the MIC90 is 13 µg/mL (≈ 38.3 µM).
As for `CCCCCCCCCCCCCCCCCCCCOP(=O)(O)OC[C@H]1O[C@@H](n2cnc3c(N)ncnc32)[C@H](O)[C@@H]1O`, the lowest concentration to inhibit growth in experiment [1] (MIC) was 0.9 µM (≈ 0.565 µg/mL).
Take `CCCCCCCCCCS(=O)(=O)Cc1cn(CCCn2cnc3ccccc32)nn1`: in experiment [3], the MIC90 is over 50 µg/mL.
`CCCCCCCCCCS(=O)(=O)Cc1cn(C[C@H]2O[C@@H](n3cnc4c(N)ncnc43)[C@H](O)[C@@H]2O)nn1`: the MIC90 in experiment [3] is over 50 µg/mL.
On to `NC(=O)CS(=O)(=O)Cc1ccccc1`, for which, in experiment [3], the MIC90 is over 50 µg/mL.
With `NC(=O)CS(=O)(=O)CCCCCCCCc1ccccc1`, in experiment [3], the MIC90 was 16 µg/mL (≈ 51.4 µM).

Values taken from ChEMBL document CHEMBL5537132, “Reassessing the putative molecular Target(s) of potent antitubercular 2-(Alkylsulfonyl)acetamides” (2024).
